Data from publication PMC6278385, “Preclinical Pharmacokinetics of C118P, a Novel Prodrug of Microtubules Inhibitor and Its Metabolite C118 in Mice, Rats, and Dogs” (Molecules, 2018).
Like-named read-outs stand apart in the source and are kept apart here.

Columns and labels:
[1] = Plasma protein binding by ultrafiltration; assay type: in vitro ADME, beagle dogs; details: beagle, dog plasma, read-out: fu (fraction unbound);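 note: fu expressed in percent not as a fraction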
Method: Both C118P and C118 were stable in the plasma with EDTA as anticoagulant. The non-specific binding to the ultrafilter membrane was negligible. The extent of plasma protein binding was reported as a fraction unbound (fu, %) value which was calculated using the formula fu = PF/TC × 100%, where TC is test compound (C118P or C118) concentration in sample before ultrafiltration, and PF is the test compound concentration in the ultrafiltrate (Table 1).
Plasma protein binding of C118P and C118 were determined by ultrafiltration at four concentrations (C118P: 400, 4000, 40,000, and 400,000 ng/mL, C118: 20, 200, 2000, and 20,000 ng/mL) in pooled plasma from Sprague-Dawley rats, beagle dogs, and humans. Stock solutions of C118P and C118 dissolved in methanol were diluted with blank plasma to achieve the test concentrations (the methanol volume is less than 10% of the plasma). The plasma was incubated for 1 h in a water bath at 37 °C. The total concentration of C118P and C118 of spiked plasma (TC) was analyzed by previously described methods. Ultrafiltration was performed with activated high speed centrifugal tubes (Millipore, Burlington, MA, USA). Plasma samples (0.4 mL) were added to the upper layer of the high speed centrifugal tubes, and then centrifuged at 12,000 g for 10 min. The concentration of unbound C118P and C118 in filtrate (PF) was similarly determined by the previously described methods. The percentage of free fraction (fu) of C118P and C118 was calculated as follows: fu = (PF/TC) × 100%.

[2] = PK in dogs after i.v. C118P; assay type: in vivo, beagle dogs; details: plasma; for AUC(0-inf) / half-life / clearance / concentration at 2 min: both sexes, beagle, dog; for AUC(0-inf) / half-life / clearance: iv; for concentration at 2 min: read-out: C2min
Method: The beagle dogs were purchased from Nanjing Ya Dong experimental animal research center. Twelve beagle dogs with half males and half females were divided randomly into two groups. C118P was dissolved in saline to different concentrations for intravenous administration. After fasting overnight with free access to water, the dogs were administered a single intravenous dose of 1 or 3 mg/kg C118P. After a one-week wash-out period, the group of 1 mg/kg were administered another single intravenous dose of 6 mg/kg C118P. Blood samples (approximately 1 mL) were collected in EDTA-coated tubes at times of 0, 2, 5, 10, 20, 40 min, 1, 2, 4, 8, 12 and 24 h. Plasma was prepared by centrifugation at 8000 rpm for 5 min, and the plasma samples were then prepared and determined by the method described above.
The area under the plasma-concentration-versus-time curve from 0 to infinite (AUC0-inf), the elimination half-life (t1/2), the systemic plasma clearance (CL) and the volume of distribution (V) were calculated by non-compartmental analysis with WinNonlin software v6.3 (Pharsight Corporation, St. Louis, MO 63144, USA) from the plasma concentration data of C118P and C118, respectively. The instantaneous concentrations after intravenous to rats (C30s) or dogs (C2min) were obtained directly from the observed data.

[3] = Tissue distribution in tumor bearing mice; assay type: in vivo, nude mice (BALB/cA) implanted with NCI-H460 tumor
Method: The nude mice (BALB/cA) implanted with NCI-H460 tumor were provided by Shanghai Institute of Materia Medica. A total of 36 mice were divided into 9 groups with four animals in each group. After fasting overnight with free access to water, the mice were treated with 75 mg/kg C118P by i.v. The blood samples were collected at 2, 10, 20, 40 min, 1, 2, 4, 8, 12 h after treatment and the mice were anaesthetized and decapitated to obtain the blood and tumor tissue. Blood, brain, muscle, ovary, and lung from mice in the PK study were collected at 10 min, 1, 4, and 12 h. Tissues were cleaned by absorbent filter paper to remove the blood. Bloods were centrifuged at 10,000× g for 5 min. Each tissue (0.2 g) was homogenized with 2 mL water. The plasma samples and the homogenates were then processed and determined by the method described above. The concentration was determined by the calibration curve and the actual concentration was corrected by multiplying by 10 according to the dilution times. […]
4. The distribution of CA4P and CA4 in tumor bearing mice.
The nude mice (BALB/cA) implanted with NCI-H460 tumor were provided by Shanghai institute of Materia Medica. A total of 36 mice were divided into 9 groups with 4 animals in each group.
After fasted overnight with free access to water, the mice were treated with 75 mg/kg CA4P by i.v.
The blood samples were collected at 2, 10, 20, 40 min, 1, 2, 4, 8, 12 h after treatment and the mice were anaesthetized and decapitated to obtain the blood and tumor tissue. All procedure are same as C118P in the main text. The concentration was determined by the calibration curve and the actual concentration was corrected by multiplying by 10 according to the dilution times.

[4] = Stability in plasma with EDTA as anticoagulant; assay type: in vitro ADME
[5] = in vivo, dogs, i.v. C118P 1 mg/kg, n = 6
[6] = in vivo, dogs, i.v. C118P 3 mg/kg, n = 6
[7] = in vivo, dogs, i.v. C118P 6 mg/kg, n = 6
[8] = dogs, i.v. C118P 1 mg/kg, n = 6
[9] = dogs, i.v. C118P 3 mg/kg, n = 6
[10] = dogs, i.v. C118P 6 mg/kg, n = 6
[11] = 0.17 h after i.v. 75 mg/kg of C118P, n = 4
[12] = 1 h after i.v. 75 mg/kg of C118P, n = 4
[13] = 4 h after i.v. 75 mg/kg of C118P, n = 4
[14] = 12 h after i.v. 75 mg/kg of C118P, n = 4
[15] = 0.17 h after i.v. 75 mg/kg of C118P, n = 4, in ng/g

In the case of `COc1cc(OC)cc(-c2nc[nH]c2-c2ccc(OC)c(OP(=O)([O-])[O-])c2)c1.[Na+].[Na+]` [C118P], the fraction unbound at 1 h, 400 ng/mL ([1]; C118P 400 ng/mL) is reported as 0.019 ± 0.001, the fraction unbound at 1 h, 4000 ng/mL ([1]; C118P 4000 ng/mL) is reported as 0.021 ± 0.001 and the fraction unbound at 1 h, 40000 ng/mL ([1]; C118P 40,000 ng/mL) is reported as 0.027 ± 0.002. The fraction unbound at 1 h, 400000 ng/mL ([1]; C118P 400,000 ng/mL) was 0.086 ± 0.003, the AUC(0-inf) [2, 5] was 1700 ± 346 ng·h/mL and the half-life [2, 5] was 13.2 ± 5.4 min. The clearance ([2]; in vivo, dogs, i.v. C118P 1 mg/kg, n = 6, read-out: CL (converted)) was 10.2 mL/min/kg, the AUC(0-inf) [2, 6] was 5300 ± 1700 ng·h/mL and the half-life [2, 6] was 35.4 ± 9.6 min. The clearance ([2]; in vivo, dogs, i.v. C118P 3 mg/kg, n = 6, read-out: CL (converted)) was 10.1 mL/min/kg, the AUC(0-inf) [2, 7] was 8530 ± 1550 ng·h/mL and the half-life [2, 7] was 23.4 ± 7.2 min. The clearance ([2]; in vivo, dogs, i.v. C118P 6 mg/kg, n = 6, read-out: CL (converted)) was 12.1 mL/min/kg, the concentration at 2 min [2, 5] was 12300 ng/mL and the concentration at 2 min [2, 6] was 34700 ng/mL. It also gave a concentration at 2 min [2, 7] of 64200 ng/mL, a V [2, 8] of 181.7 ± 51.3 mL/kg and a V [2, 9] of 509.2 ± 162.0 mL/kg. The V [2, 10] was 398.5 ± 87.1 mL/kg, the “concentration in Lung” value [3, 11] was 130.2 ± 7.5 and the “concentration in Plasma” value [3, 11] was 5199.4 ± 2147.9. The “concentration in Tumor” value [3, 11] was 115.8 ± 24.1, the “concentration in muscle” value [3, 11] was 355.4 ± 64.1 and the “concentration in Plasma” value [3, 12] was 191.2 ± 60.5. The “concentration in Tumor” value [3, 12] was 73.0 ± 15.0, the “concentration in Plasma” value [3, 13] was 14.7 ± 8.4 and the “concentration in Tumor” value [3, 13] was 26.7 ± 0.0. The “concentration in Plasma” value [3, 14] was 6.1 ± 0.0 and the stability in plasma [4] was “stable”.
`COc1cc(OC)cc(-c2nc[nH]c2-c2ccc(OC)c(O)c2)c1` [C118] showed a fraction unbound at 1 h, 200 ng/mL ([1]; pooled plasma, C118 200 ng/mL) of 0.058 ± 0.002, a fraction unbound at 1 h, 2000 ng/mL ([1]; pooled plasma, C118 2000 ng/mL) of 0.062 ± 0.004 and a fraction unbound at 1 h, 20000 ng/mL ([1]; pooled plasma, C118 20,000 ng/mL) of 0.054 ± 0.004. It also gave a concentration at 2 min ([2]; intravenous, dogs, i.v. C118P 1 mg/kg, n = 6) of 252 ± 70.5 ng/mL, a concentration at 2 min ([2]; intravenous, dogs, i.v. C118P 3 mg/kg, n = 6) of 861 ± 259 ng/mL and a concentration at 2 min ([2]; intravenous, dogs, i.v. C118P 6 mg/kg, n = 6) of 1700 ± 509 ng/mL. It also gave an AUC(0-inf) [2, 8] of 214 ± 79 ng·h/mL, a half-life [2, 8] of 29.4 ± 10.8 min and an AUC(0-inf) [2, 9] of 910 ± 295 ng·h/mL. The half-life [2, 9] was 63 ± 16.2 min, the AUC(0-inf) [2, 10] was 1830 ± 320 ng·h/mL and the half-life [2, 10] was 50.4 ± 15 min. The clearance ([2]; in vivo, compared with extrapolated CLH, read-out: Observed CL) was 54 mL/min/kg, the “concentration in muscle” value [3, 11] was 15,202.5 ± 8814.7 and the “concentration in ovary” value [3, 11] was 26,723.8 ± 18,229.6. The “concentration in Lung” value [3, 15] was 26,923.2 ± 4389.0, the “concentration in Tumor” value [3, 15] was 14,563.3 ± 1989.9 and the “concentration in brain” value [3, 15] was 3562.8 ± 796.6. For the same compound, the “concentration in Plasma” value ([3]; 0.17 h after i.v. 75 mg/kg of C118P, n = 4, in ng/mL) was 26,048.0 ± 2429.7, the “concentration in Lung” value [3, 12] was 1852.3 ± 929.3 and the “concentration in Plasma” value [3, 12] was 1730.0 ± 986.4. For the same compound, the “concentration in Tumor” value [3, 12] was 12,998.1 ± 4132.3, the “concentration in brain” value [3, 12] was 1250.7 ± 351.3 and the “concentration in muscle” value [3, 12] was 946.8 ± 390.6. The “concentration in ovary” value [3, 12] was 3308.6 ± 2611.1, the “concentration in Lung” value [3, 13] was 231.3 ± 181.7 and the “concentration in Plasma” value [3, 13] was 132.6 ± 56.8. For the same compound, the “concentration in Tumor” value [3, 13] was 4969.8 ± 3414.7, the “concentration in brain” value [3, 13] was 109.1 ± 22.0 and the “concentration in muscle” value [3, 13] was 136.4 ± 2.8. The “concentration in Tumor” value [3, 14] was 1327.7 ± 1124.0 and the stability in plasma [4] was “stable”.
